In this experiment the target is Active Human ERK2 (hERK2) (Homo sapiens (Human), UniProt P28482). The experiment in a line: Active Human ERK2 (hERK2) Activity Assay (IMAP-FP). The format is biochemical. The protocol: Assays Active Human ERK2 (hERK2) Activity Assay:
Activated ERK2 activity was determined in an IMAP-FP assay (Molecular Devices). […] The final reaction in each well of 25 μL consists of 0.5 nM hERK2, 900 nM unlabeled peptide, 80 nM labeled-peptide, and 30 μM ATP. Phosphorylation reactions were allowed to proceed for 60 minutes and were immediately quenched by the addition of […] IMAP detection beads (1:1000 dilutions) in IMAP binding buffer (Molecular Devices) with 24 mM NaCl. Plates were read on EnVision reader after 60 minutes binding equilibration using Fluorescence Polarization protocol (Perkin Elmer).

The mark [1] stands for this setting: phosphorylated active hERK2, 30 μM ATP, average, read-out: ERK 2 Human average IC50.

Like-named read-outs stand apart in the source and are kept apart here.

By IC50 is commonly meant the point on the concentration scale where inhibition reaches its midpoint.

Sequence of Active Human ERK2 (hERK2) (P28482 whole entry): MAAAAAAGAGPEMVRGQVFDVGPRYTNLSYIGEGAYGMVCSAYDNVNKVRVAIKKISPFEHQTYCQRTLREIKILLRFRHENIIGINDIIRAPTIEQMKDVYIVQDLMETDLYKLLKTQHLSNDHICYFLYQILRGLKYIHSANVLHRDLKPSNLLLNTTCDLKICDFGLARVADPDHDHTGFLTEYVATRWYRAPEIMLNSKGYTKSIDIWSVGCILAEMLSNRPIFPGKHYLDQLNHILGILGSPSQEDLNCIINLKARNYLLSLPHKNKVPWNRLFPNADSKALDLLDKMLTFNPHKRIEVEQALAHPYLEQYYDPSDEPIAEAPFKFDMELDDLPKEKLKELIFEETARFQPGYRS

With `Cc1cc(-c2n[nH]c3cc(NC(=O)NC=C4CC4)ncc23)ccn1` [Example 38, 1-(cyclopropylidenemethyl)-3-[3-(2-methylpyridin-4-yl)-1H-pyrazolo[4,3-c]pyridin-6-yl]urea], the IC50 under setting [1] was determined as 481 nM. Still for that read-out and setting: as for `C[C@@H](NC(=O)Nc1cc2[nH]nc(Br)c2cn1)c1ccc(F)c(Cl)c1` [Example 68, 1-(3-bromo-1H-pyrazolo[4,3-c]pyridin-6-yl)-3-[(1R)-1-(3-chloro-4-fluorophenyl)ethyl]urea], the figure is 106 nM; as for `Cc1cc(-c2n[nH]c3cc(NC(=O)NCc4ccsn4)ncc23)ccn1` [Example 476], 0.587 nM. Still for that read-out and setting: as for `Cc1cc(-c2n[nH]c3cc(NC(=O)N[C@@H]4CCN(C)C4)ncc23)ccn1` [Example 596], the figure is 4.87 nM; as for `Cc1cc(-c2n[nH]c3cc(NC(=O)NCc4c(F)cccc4Cl)ncc23)ccn1` [Example 440], 0.469 nM. Still for that read-out and setting: as for `Cc1cc(-c2n[nH]c3cc(NC(=O)N[C@H]4CN(C)C[C@@H]4C4CCOCC4)ncc23)ccn1` [Example 210], the figure is 96.8 nM; as for `Cc1cc(-c2n[nH]c3cc(NC(=O)NC4CCc5cc(Cl)ccc54)ncc23)ccn1` (stereo not shown) [Example 283], 86 nM; as for `Cc1cc(-c2n[nH]c3cc(NC(=O)N[C@H](C(=O)O)C(C)C)ncc23)ccn1` [Example 452], 2240 nM. Turning to `COC[C@@H](NC(=O)Nc1cc2[nH]nc(-c3ccnc(C#N)c3)c2cn1)c1ccc(F)cc1` [Example 304], the IC50 under setting [1] is 1.75 nM.

For the compound `Cc1cc(-c2n[nH]c3cc(NC(=O)N[C@H]4CN(C)C[C@@H]4c4ccccc4)ncc23)ccn1` [Example 182], the IC50 under setting [1] stood at 18.8 nM.

As for `Cc1cc(-c2n[nH]c3cc(NC(=O)NCC4COC4)ncc23)ccn1` [Example 588], the IC50 under setting [1] worked out at 30.9 nM.

Take `Cc1ccc(C(C)NC(=O)Nc2cc3[nH]nc(-c4ccnc(C)c4)c3cn2)nc1` (stereo not shown) [Example 339]: the IC50 under setting [1] is 6.08 nM. Regarding `Cc1cc(-c2n[nH]c3cc(NC(=O)NC4CCCC(Oc5cccc(F)c5)C4)ncc23)ccn1` (stereo not shown) [Example 656], the IC50 under setting [1] came to 5.06 nM. Still for that read-out and setting: for `Cc1cc(-c2n[nH]c3cc(NC(=O)NCc4c(F)cc(F)cc4F)ncc23)ccn1` [Example 519] the value was 0.962 nM; for `COCCN(Cc1cccnc1)C(=O)Nc1cc2[nH]nc(-c3ccnc(C)c3)c2cn1` [Example 50, 1-(2-methoxyethyl)-3-[3-(2-methylpyridin-4-yl)-1H-pyrazolo[4,3-c]pyridin-6-yl]-1-(pyridin-3-ylmethyl)urea], 899 nM.

As for `CO[C@@H](C)CNC(=O)Nc1cc2[nH]nc(-c3ccc(F)cc3)c2cn1` [Example 635], the IC50 under setting [1] stood at 0.873 nM. Same read-out and setting: as for `Cc1cc(-c2n[nH]c3cc(NC(=O)N[C@@H](c4ccccc4)C4(O)CCCC4)ncc23)ccn1` [Example 531], the figure is 0.545 nM; as for `Cc1cc(-c2n[nH]c3cc(NC(=O)N[C@H](C)c4ccncc4)ncc23)ccn1` [Example 236], 1.51 nM. On the same count and under the same terms, for `Cc1cc(-c2n[nH]c3cc(NC(=O)NCc4ccc(-c5ncc[nH]5)cc4)ncc23)ccn1` [Example 371] the value was 59 nM; for `O=C(NCc1ccccc1)Nc1cc2[nH]nc(C3CCC3)c2cn1` [Example 147], 11.2 nM; for `CC(C)CN(C)c1ncc(-c2n[nH]c3cc(NC(=O)N[C@H](C)c4ccc(F)cc4)ncc23)cn1` [Example 309], 44.5 nM.

For the compound `C[C@@H](NC(=O)Nc1cc2[nH]nc(C3CC3)c2cn1)c1ccc(F)cc1` [Example 141], the IC50 under setting [1] worked out at 2.43 nM. The same measure, in the same setting: as for `COc1cc(-c2n[nH]c3cc(NC(=O)N[C@H](C)c4ccc(F)cc4)ncc23)ccn1` [Example 310], the figure is 6.52 nM. On the same count and under the same terms, as for `Cc1cc(-c2n[nH]c3cc(NC(=O)NCc4ncnn4C)ncc23)ccn1` [Example 424], the figure is 2.55 nM; as for `CCNC(=O)[C@H]1C[C@@H]1c1n[nH]c2cc(NC(=O)N[C@H](COC)c3ccccc3)ncc12` [Example 170, (1S,2S)—N-ethyl-2-(6-(3-((S)-2-methoxy-1-phenylethyl)ureido)-1H-pyrazolo[4,3-c]pyridin-3-yl)cyclopropanecarboxamide], 0.715 nM. Still for that read-out and setting: for `CCO[C@@H]1CN(C)C[C@H]1NC(=O)Nc1cc2[nH]nc(-c3ccc(F)cc3)c2cn1` [Example 320] the value was 25.4 nM; for `Cc1cc(-c2n[nH]c3cc(NC(=O)N[C@@H](C)c4ccccn4)ncc23)ccn1` [Example 345], 5.37 nM; for `Cc1cc(-c2n[nH]c3cc(NC(=O)N[C@@H]4CN(C)C[C@H]4c4ccccc4F)ncc23)ccn1` [Example 184], 0.171 nM. As for `CCC(NC(=O)Nc1cc2[nH]nc(-c3ccnc(C)c3)c2cn1)c1ccc(Cl)cc1` (stereo not shown) [Example 344], the IC50 under setting [1] was found to be 3.15 nM.

For `C[C@@H](NC(=O)Nc1cc2[nH]nc(-c3cnn(C)c3)c2cn1)c1ccc(Cl)cc1` [Example 59, 1-[(1R)-1-(4-chlorophenyl)ethyl]-3-[3-(1-methyl-1H-pyrazol-4-yl)-1H-pyrazolo[4,3-c]pyridin-6-yl]urea], the IC50 is 0.514 nM under setting [1] and 0.2 to 1.7 nM (read-out: AERK2 IC50 (Active human ERK2 Activity Assay)). With `C[C@@H](NC(=O)Nc1cc2[nH]nc(C(=O)NCC3CCOC3)c2cn1)c1ccccc1` (stereo partly shown) [Example 121], the IC50 under setting [1] was 3.83 nM. On the same count and under the same terms, as for `O=C(NCc1ccno1)Nc1cc2[nH]nc(-c3ccc(F)cc3)c2cn1` [Example 222], the figure is 0.995 nM; as for `Cc1cc(-c2n[nH]c3cc(NC(=O)NCC4(c5ccc(OC(F)(F)F)cc5)CC4)ncc23)ccn1` [Example 268], 91.6 nM; as for `C[C@@H](NC(=O)Nc1cc2[nH]nc(C(=O)N[C@@H]3CCN(O)C3=O)c2cn1)c1ccccc1` [Example 134], 103 nM. On the same count and under the same terms, as for `Cc1nc2ccc(-c3n[nH]c4cc(NC(=O)N[C@H](C)c5ccccc5)ncc34)cc2o1` [Example 652], the figure is 0.72 nM; as for `Cc1cc(-c2n[nH]c3cc(NC(=O)NCCc4nc5ccccc5[nH]4)ncc23)ccn1` [Example 377], 0.478 nM; as for `Cc1cc(-c2n[nH]c3cc(NC(=O)NC(CCN(C)C)c4ccccn4)ncc23)ccn1` (stereo not shown) [Example 353], 1.56 nM. Same read-out and setting: for `Cc1cccc(CNC(=O)Nc2cc3[nH]nc(C(F)F)c3cn2)n1` [Example 695] the value was 155 nM. As to `Cc1cc(-c2n[nH]c3cc(NC(=O)NC(C)c4ccccc4OC(F)(F)F)ncc23)ccn1` (stereo not shown) [Example 524], the IC50 under setting [1] is 2.39 nM. `Cc1cc(-c2n[nH]c3cc(NC(=O)NCc4cnc(C)s4)ncc23)ccn1` [Example 434]: under setting [1], the IC50 turned out to be 1.14 nM. The same measure, in the same setting: as for `COC[C@@H](NC(=O)Nc1cc2[nH]nc(-c3ccnc(N4CCOCC4)c3)c2cn1)c1ccc(F)cc1` [Example 298], the figure is 1.17 nM; as for `CC(F)(F)c1n[nH]c2cc(NC(=O)NCc3ccccc3)ncc12` [Example 667], 259 nM; as for `COC[C@@H](NC(=O)Nc1cc2[nH]nc(-c3cc(C)on3)c2cn1)c1ccccc1` [Example 683], 4.36 nM. On the same count and under the same terms, as for `C[C@@H](NC(=O)Nc1cc2[nH]nc(-c3ccnc(Cl)c3)c2cn1)c1ccc(F)c(Cl)c1` [Example 75, 1-[(1R)-1-(3-chloro-4-fluorophenyl)ethyl]-3-[3-(2-chloropyridin-4-yl)-1H-pyrazolo[4,3-c]pyridin-6-yl]urea], the figure is 2.64 nM. The same measure, in the same setting: as for `C[C@@H](NC(=O)Nc1cc2[nH]nc(-c3ccc(F)cc3)c2cn1)c1ccc(F)c(Cl)c1` [Example 73, 1-[(1R)-1-(3-chloro-4-fluorophenyl)ethyl]-3-[3-(4-fluorophenyl)-1H-pyrazolo[4,3-c]pyridin-6-yl]urea], the figure is 9.34 nM; as for `C[C@@H](NC(=O)Nc1cc2[nH]nc(-c3ccc4nn(C)cc4c3)c2cn1)c1ccccc1` [Example 651], 0.223 nM. Take `Cc1cc(-c2n[nH]c3cc(NC(=O)NC4(c5ccccn5)CC4)ncc23)ccn1` [Example 351]: the half-inhibitory concentration (IC50) under setting [1] worked out at 91.9 nM. `Cc1cc(-c2n[nH]c3cc(NC(=O)N[C@@H]4[C@H](CO)[C@H]5CC[C@@H]4O5)ncc23)ccn1` [Example 367]: the IC50 under setting [1] is 4.51 nM. Consider `Cc1cc(-c2n[nH]c3cc(NC(=O)NC(C)(C)c4ccc(Cl)cc4)ncc23)ccn1` [Example 70, 1-[1-(4-chlorophenyl)-1-methylethyl]-3-[3-(2-methylpyridin-4-yl)-1H-pyrazolo[4,3-c]pyridin-6-yl]urea], for which the IC50 under setting [1] came to 10.2 nM. On the same count and under the same terms, as for `Cc1cc(-c2n[nH]c3cc(NC(=O)NCc4ncc(Cl)cc4F)ncc23)ccn1` [Example 487], the figure is 10.1 nM; as for `C[C@@H](NC(=O)Nc1cc2[nH]nc(C3CCCC3)c2cn1)c1ccccc1` [Example 653], 4.16 nM. Same read-out and setting: as for `Cc1cc(-c2n[nH]c3cc(NC(=O)NC(C)c4ccc(S(C)(=O)=O)cc4)ncc23)ccn1` (stereo not shown) [Example 376], the figure is 0.582 nM; as for `C[C@@H](NC(=O)Nc1cc2[nH]nc(C3CC3(F)F)c2cn1)c1ccccc1` (stereo partly shown) [Example 164], 7.71 nM; as for `C[C@@H](NC(=O)Nc1cc2[nH]nc(C3CCC3)c2cn1)c1ccccn1` [Example 149], 72.1 nM. As for `Cc1cc(-c2n[nH]c3cc(NC(=O)N[C@@H]4CNC[C@H]4F)ncc23)ccn1` [Example 325], the IC50 under setting [1] amounted to 3.96 nM. Same read-out and setting: as for `C[C@@H](NC(=O)Nc1ncc2c(C#N)n[nH]c2c1F)c1ccccc1` [Example 540], the figure is 946 nM; as for `Cc1cc(-c2n[nH]c3cc(NC(=O)NC4(CN)CCc5cc(F)ccc54)ncc23)ccn1` (stereo not shown) [Example 492], 26 nM. The same measure, in the same setting: as for `Cc1cc(-c2n[nH]c3cc(NC(=O)N[C@H](C)c4ccc(C#N)cc4)ncc23)ccn1` [Example 234], the figure is 0.861 nM; as for `Cc1cc(-c2n[nH]c3cc(NC(=O)NCc4ncon4)ncc23)ccn1` [Example 426], 5.67 nM; as for `Cc1cc(-c2n[nH]c3cc(NC(=O)NC4CCOC4)ncc23)ccn1` (stereo not shown) [Example 577], 4 nM.

The record behind these values is patent US9023865B2, “Compounds that are ERK inhibitors” (Merck Sharp & Dohme Corp., priority 2011, dated 2015).
